Legend:
C57B16/J mice = assay: Intraperitoneal Chemerin15-mouse alone (no zymosan): peritoneal cell recruitment and TNFα; assay type: in vivo; conditions: 0.32 ng/kg i.p., 4 h
Method: Male C57B16/J mice (8-12 weeks) were injected intra-peritoneally with 0.5 ml PBS or 0.5 ml Chemerin15-mouse (0.32 ng/kg). After 4 hours three animals per treatment group were sacrificed and peritoneal cavities washed with 5 ml PBS-3 mM EDTA. Total cell counts were obtained using Trypan blue exclusion test. For determination of cellular composition (Neutrophils vs mononuclear phagocytes), cells were blocked with 2.4G2 anti-FcgRII/III mAB for 5 mins and stained with PE-conjugated anti-mouse Ly-6G and FITC-conjugated anti-mouse 7/4 mAB for 10 mins. Cells were fixed in 1% formaldehyde prior to FACS analysis with CellQuest software. Gates were constructed around two populations, the neutrophils (N; 7/4^high, Ly-6G^high) and inflammatory monocytes (Mo; 7/4^high, Ly-6G^low). C15 refer to Chemerin15-mouse. p<0.01 ** relative to PBS-treated. Ns refers to no statistically significant difference p>0.05.

peritoneal macrophages = assay: Zymosan recognition / phagocytosis by macrophages (FITC-zymosan, FACS); assay type: cell-based, mouse
Method: For in vitro recognition of zymosan by macrophages, peritoneal exudate cells were isolated by lavage with ice-cold 2 mM EDTA in PBS from mice that had been treated intraperitoneally 4 d before with Biogel beads (2% w/v). Macrophages were plated in 24-well plates at a density of 2.5×10^5 cells per well in Optimem medium. Cells were washed three times with medium before the addition of Fluorescein isothiocyanate (FITC)-labeled zymosan (Invitrogen) in recognition assays at macrophage/particle ratios of 10:1 in the presence of either 0.1 pM, 1 pM, 10 pM, 100 pM or 1 nM Chemerin15. Vehicle=control sample without Chemerin15. FITC-zymosan uptake was followed by FACS analysis and is expressed as a relative recognition index i.e the ratio of %® cells uptaking zymosan×the ratio of geometric means C15 treated macrophages/geometric mean of macrophages treated with vehicle.

In the case of “AGEDPHGYFLPGQFA (listed as Mus sp.) [C15]”, the “Monocyte or neutrophil migration after peptide alone (FIG. 9)” value (C57B16/J mice) is reported as “does not cause monocyte or neutrophil migration”, the “Peritoneal TNFα after peptide alone (FIG. 9)” value (C57B16/J mice) is reported as “significant reduction in TNFα” and the “Macrophage phagocytosis of zymosan (FIG. 15)” value (peritoneal macrophages; 0.1 pM-1 nM, FITC-zymosan) is reported as “induces macrophage phagocytosis of zymosan”. For the same sequence, the “Concentration of greatest induction of macrophage phagocytosis” value (peritoneal macrophages; tested 0.1 pM-1 nM) was 10 pM.

Reference: patent US8906865B2, “Treatment of inflammation and/or endotoxic shock” (ISIS Innovation Limited, priority 2007, dated 2014)
